Assay results as given in patent US20050176778A1, “Isoprenyl derivatives and their use in the title treatment and prevention of osteoporosis and cardiovascular calcification” (Vitak BV, priority 2001, published 2005).
“Also recorded” adds a separate entry of the source.

Columns and labels:
[1] = system: vascular calcification (aortae and carotid arteries); assay: Experiment 4: vascular calcification (Von Kossa staining) in rats treated with warfarin, vitamin K-1 and increasing doses of MK-4 (KW model); assay type: in vivo, male Lewis rats
Text: In the present invention the “Vitamin K1 plus warfarin” model was used to test effects of isoprenyl derivatives on vascular calcification. This model is also referred to as the “KW model for calcification” or “KW model”. Because of the parallels between vascular calcification and calcium metabolism in bone, the model is regarded to be valid for describing potential effects on bone. Whereas in this model the bone deformations will not become visible before 9 months of treatment, calcification of the large arteries is usually apparent within 4 weeks of treatment. This model therefore provides an excellent in vivo model to test the compounds according to the invention for their tissue distribution, toxicity and effectivity. […] It was shown that calcification was not inhibited by vitamin K-1 in doses going up from 40 to 600 mg/kg of body weight per day. The highest dose was 15,000 times the amount required for normal blood coagulation in untreated animals, and 15 times the amount required for normal blood coagulation in warfarin-treated animals. At these high intakes all tissues contain excessive amounts of vitamin K-1, which apparently are incapable of supporting the synthesis of inhibitors of calcium precipitation such as the Gla-protein MGP. […]

postmenopausal bone loss = conditions: cited from earlier work
prothrombin [2] = assay: Experiment 2: dietary requirement of vitamin K-1 in warfarin-treated rats, plasma prothrombin level; assay type: in vivo, male Lewis rats
Protocol: In experiment 2 the dietary requirement of vitamin K-1 in warfarin-treated (300 mg Vitamin K-1 per kg body weight per day) male Lewis rats, 6 weeks of age, was measured on the basis of blood coagulation tests after a treatment period of 4 weeks. At a level of 40 mg vitamin K-1 per kg body weight per day a normal prothrombin synthesis was maintained.
Thirty six male Lewis rats (6 weeks of age) were treated with an excess of warfarin (300 mg vitamin K-1 per kg body weight per day) to block all dithiol reductase present in the tissues. They were subdivided into groups of 6 animals each and received vitamin K-1 in the following doses: 20, 40, 70, 100, 300, and 600 mg/kg body weight per day. […] It was concluded that […] of vitamin K-1 per kg body weight per day effectively protects the animals against warfarin-induced bleeding.

prothrombin [3] = assay: Experiment 1: dietary requirement of vitamin K-1 in untreated rats, prothrombin concentration (one-stage coagulation assay); assay type: in vivo, male Lewis rats; conditions: for Mean prothrombin concentration: four weeks
Protocol: In experiment 1 the dietary requirement of vitamin K-1 was measured in untreated male Lewis rats, 6 weeks of age, on the basis of blood coagulation tests after a treatment period of 4 weeks. At an intake of 40 microgram vitamin K-1 per kg body weight per day, the synthesis of coagulation factors had reached its (maximal) plateau level.
Male rats of the Lewis strain were used throughout our experiments, six animals per group. Thirty six animals entered the experiment at the age of 6 weeks and received a vitamin K deficient diet (Hope Farms, Woerden, The Netherlands) for one week to deplete them from endogenous vitamin K. During the experiment they were housed in coprophagy-preventing cages. After this period citrated blood was taken from the tail vein, and the prothrombin concentrations (one-stage coagulation assay) were checked to be below the normal reference value. At that time they received vitamin K-deficient food to which controlled amounts of vitamin K-1 were added in the following doses: 0.1, 0.2, 0.4, 0.6, 0.8, and 1.0 mg/kg of food. The daily food intake was recorded, and the body weight of the animals was measured regularly. After four weeks of treatment at the indicated doses again blood was taken and prothrombin concentrations were measured. Mean prothrombin concentrations in the groups were: 23%, 48%, 82%, 98%, 102%, and 99% of pooled normal rat reference plasma. […] This amount corresponds with an intake of 40 micrograms of vitamin K-1 per kg body weight per day.

[4] = system: vascular calcification (aortic arch and carotid arteries); assay: Experiment 3: vascular calcification (Von Kossa staining) in rats treated with warfarin and increasing doses of vitamin K-1; assay type: in vivo, male Lewis rats
Text: In the present invention the “Vitamin K1 plus warfarin” model was used to test effects of isoprenyl derivatives on vascular calcification. This model is also referred to as the “KW model for calcification” or “KW model”. Because of the parallels between vascular calcification and calcium metabolism in bone, the model is regarded to be valid for describing potential effects on bone.
The same animals described in experiment 2 were killed, and the aortic arch and carotid arteries were removed and stained for calcium deposits using the Von Kossa staining and histochemical inspection.

SMILES: CC(C)=CCC/C(C)=C/CC/C(C)=C/CC/C(C)=C/CC1=C(C)C(=O)c2ccccc2C1=O [MK-4, 2-methyl 3-geranylgeranyl naphthoquinone]
- Inhibition of vascular calcification ([1]; KW model, addition of 10 mg/kg body weight per day of MK-4): effectively inhibited all vascular calcification
- Vascular calcification (Von Kossa staining) ([1]; warfarin 300 mg/kg/d plus vitamin K-1 70 mg/kg/d plus MK-4 10, 20 and 50 mg per kg body weight per day, 6 weeks): no calcification
- Action on bone (postmenopausal bone loss; high doses of MK-4 (45 mg/day)): comparable with that of bisphosphonates
- Effect on postmenopausal bone loss (postmenopausal bone loss; high doses): almost completely inhibit postmenopausal bone loss

SMILES: CC1=C(C/C=C(\C)CCC[C@H](C)CCC[C@H](C)CCCC(C)C)C(=O)c2ccccc2C1=O [vitamin K-1]
- Dose that effectively protects the animals against warfarin-induced bleeding (prothrombin [2]): 70 mg of vitamin K-1 per kg body weight per day
- Level at which a normal prothrombin synthesis was maintained (prothrombin [2]; 4 weeks): 40 mg vitamin K-1 per kg body weight per day
- Circulating prothrombin concentration (prothrombin [2]; 20 and 40 mg of vitamin K-1 per day): 60 % of normal
- Circulating prothrombin concentration (prothrombin [2]; all higher intakes (70, 100, 300, 600 mg/kg body weight per day)): comparable to normal reference values
- Diet content sufficient to maintain normal prothrombin synthesis (prothrombin [3]; untreated rats, content in food): 0.6 mg of vitamin K-1 per kg
- Mean prothrombin concentration (prothrombin [3]; vitamin K-1 0.1 mg/kg of food, after vitamin K deficient diet): 23 % of pooled normal rat reference plasma
- Mean prothrombin concentration (prothrombin [3]; vitamin K-1 0.2 mg/kg of food): 48 % of pooled normal rat reference plasma
- Mean prothrombin concentration (prothrombin [3]; vitamin K-1 0.4 mg/kg of food): 82 % of pooled normal rat reference plasma
- Mean prothrombin concentration (prothrombin [3]; vitamin K-1 0.6 mg/kg of food): 98 % of pooled normal rat reference plasma
- Mean prothrombin concentration (prothrombin [3]; vitamin K-1 0.8 mg/kg of food): 102 % of pooled normal rat reference plasma
- Mean prothrombin concentration (prothrombin [3]; vitamin K-1 1.0 mg/kg of food): 99 % of pooled normal rat reference plasma
- Inhibition of calcification ([4]; KW model, vitamin K-1 doses going up from 40 to 600 mg/kg of body weight per day): not inhibited
- Vascular calcification (Von Kossa staining) ([4]; warfarin 300 mg/kg/d plus vitamin K-1 20, 40, 70, 100, 300 and 600 mg/kg body weight per day, 4 weeks): substantial calcification; also recorded: Calcification of the media (notably the elastic lamelae) was found in all animals
